The text below walks through data of a melting point compilation (Tetko et al.; mined from patent text by program, amines drawn as free bases though some values may be those of a salt).

Where only a bound is given, the exact number is not on record here.

Regarding `Cc1ccc2c(c1)c(=O)c(S(C)=O)nn2C` (stereo not given), the melting point (commonly the temperature of the solid-liquid transition) lay in the range of 173 to 175 °C.

The compound `NCC1Cc2cccc(-c3cccc4ccccc34)c2O1` (stereo not given) registered a melting point of 120 to 124 °C.

`CCS(=O)(=O)N(CCN(C)C(C)=O)c1ccc(N)cc1`: the melting point was determined as 140 °C.

The compound `CC(=O)Nc1ncc(SCC(=O)OC(C)(C)C)s1` displayed a melting point of 162 to 163 °C.

`COC(=O)C1C(=O)Nc2cccc(C(F)(F)F)c2CC1c1ccccc1OC` (stereo not given) showed a melting point of 214 to 216 °C.

`CCOC(=O)C1=C(C)NC(=S)N(C(=O)OCC)C1c1ccccc1C(F)(F)F` (stereo not given) came in with a melting point of 106 to 108 °C.

Consider `O=C(Nc1ccc(-c2nn(C(=O)c3ccccc3)c3c2Cc2ccccc2-3)cc1)c1ccccc1`, for which the melting point stood at 241 °C.

Compound `CC(=O)Nc1c(F)ccc2nc(C)ccc12` gave a melting point of 232 to 235 °C.

Compound `CCOC(=O)c1cn(C(C)c2c(F)cccc2F)nn1` (stereo not given) gave a melting point of 118 to 121 °C.

`CN(CCCC(N)=O)Cc1ccc(Cl)cc1` came in with a melting point of 62 to 64 °C.

The compound `O=C1COc2ccc(C3=Nc4ccccc4SC3c3ccccn3)cc2N1` (stereo not given) gave a melting point of 168 to 170 °C.

Compound `C#CCc1c(-c2ccccc2)nc(C)[nH]c1=O` came in with a melting point of 220 to 225 °C.

For the compound `O[C@@H]1CCC[C@H]1Nc1ccc(Cl)c(Cl)c1` (relative stereo), the melting point fell in the range of 167 to 168 °C.

`O=CN1CCn2nccc21` returned a melting point of 78 to 80 °C.

`COc1cc(Nc2cc(C(F)(F)F)nc(-c3cc(Cl)nc(Cl)c3)n2)cc(OC)c1` showed a melting point of 109 to 110 °C.

The compound `COC(=O)c1cc(O)cc(Cl)c1` displayed a melting point of 133 to 135 °C.

Compound `Nc1ccc(N2CCN(c3ccccn3)CC2)cc1` gave a melting point of 119 to 120 °C.

The compound `O=C(NCCN1CCC(O)(c2ccc(Cl)cc2)CC1)c1cccs1` displayed a melting point of 153 °C.

Turning to `O=c1c(C(O)c2ccc(Cl)cc2)c(Cl)nc2n1CCS2` (stereo not given), the melting point fell in the range of 175 to 177 °C.

Turning to `Oc1cccc2c(Oc3ccccc3)cccc12`, the melting point fell in the range of 82 to 83 °C.

Compound `O=C(O)Cc1onc(O)c1Cl` came in with a melting point of 155 °C.

On to `COC(=O)c1ccc(Cn2nc(Cl)c3ccc([N+](=O)[O-])cc32)c(OC)c1`, for which the melting point was 131 to 132 °C.

Compound `N#CCc1ccc(Nc2nc(OCC3CCCCC3)c3[nH]cnc3n2)cc1` gave a melting point of 191 to 192 °C.

In turn, `CC(CC(O)(CNc1ccc2c(c1)COC2=O)C(F)(F)F)c1ccccc1` (stereo not given) gave a melting point of 110 °C.

For the compound `CCCCCCCCCCCOc1ccc(O)cc1C=O`, the melting point was 66 to 67 °C.

Compound `COC1=CC(OC)(OC)CC=C1C(=O)OCC(=O)c1ccccc1` showed a melting point of 97 to 98 °C.

The compound `C[C@H]1CCCN(C(=O)[C@@H]2Cc3ccccc3N2c2ccc(=O)n(C)n2)C1` came in with a melting point of 231 to 233 °C.

The compound `O=C(NCc1ccc(O)cc1)C12CC3CC(CC(C3)C1)C2` displayed a melting point of 196 to 198 °C.

With `COC(=O)CCCc1cc2cc(Cl)ccc2n1S(=O)(=O)c1cccc(C(C)C)c1`, the melting point fell in the range of 94 to 97 °C.

As to `CC(C)OC(CC#N)=NC#N`, the melting point was 66.5 °C.

Compound `CCCc1nn(C)c2c(=O)[nH]c(-c3cc(/C=C/C(=O)N(C)C)ccc3OCC)nc12` registered a melting point of 219 to 221 °C.

On to `Nc1ncnc2c1ncn2OCCCOCP(=O)(O)O`, for which the melting point lay within 246 to 249 °C.

`COc1ccc2[nH]cc(C3=CCN(C(=O)NCC4CCC(c5ccccc5)(N(C)C)CC4)CC3)c2c1` (stereo not given): the melting point lay within 98 to 104 °C.

As for `CC(C)c1cccc(C(C)C)c1NC(=O)Nc1nnn[nH]1`, the melting point was > 240 °C.

Compound `COc1cc(N2CCCN(C[C@@H](C)O)CC2)ccc1Nc1ncc2ccc(-c3ccccc3N(C)S(C)(=O)=O)n2n1` had a melting point of 93 to 99 °C.

With `FC(F)(F)c1cccc(C2=NN3CCN=C3C=C2)c1`, the melting point was 137 to 139 °C.

In the case of `COC(=O)C(CCC#N)(CCC#N)C(=O)OC`, the melting point was 143 °C.

Regarding `CCc1c(F)c(F)c(-n2ncc(C#N)c2NCC(C)C(=O)O)c(F)c1F` (stereo not given), the melting point was 138 to 140 °C.

In turn, `Nc1ccc(C2CCN(c3ccncc3)CC2)cc1` came in with a melting point of 196 to 197 °C.

`CCCCCCCCC(CCC)CC(=O)Nc1ccccc1` (stereo not given) yielded a melting point of 98 to 100 °C.

Regarding `COC(=O)c1c(Cl)cc(Cl)cc1NC(=O)CSc1ccc(NC(=S)NCc2ccccc2)cc1`, the melting point was in the range of 152 to 155 °C.

Consider `Brc1cccc2c1[nH]c1c2ccc2cc[nH]c21`, for which the melting point is > 250 °C.

`COc1cc(C(=S)N2CCNCC2)cc(OC)c1OC`: the melting point was in the range of 116 to 118 °C.

In turn, `CCCCOC(=O)Nc1cccc(C(=O)C=CN(C)C)c1` yielded a melting point of 115 to 116 °C.

For `COC(=O)c1cc(N=Cc2ccccc2)ccc1OC(C)=O`, the melting point is 101 to 103 °C.

Consider `CC(=O)Nc1ccc(S(=O)(=O)Nc2nc(=O)n(C3CC3)cc2C)cc1`, for which the melting point was in the range of 176 to 181 °C.

Regarding `Oc1ccc([C@H]2c3ccc(OCc4ccccc4)cc3OC[C@H]2c2ccccc2)cc1` (racemic), the melting point lay in the range of 204 to 205 °C.

Take `O=c1[nH]c2cc(Br)ccc2c(=O)n1Cc1ccc(Br)cc1F`: the melting point was > 280 °C.

With `COC(=O)c1cc([N+](=O)[O-])c(C(C)(C)C)c([N+](=O)[O-])c1`, the melting point fell in the range of 115 to 117 °C.

`Nc1nc2ccccc2c2c1nc(C1CCOC1)n2CCOc1ccccc1` (stereo not given) displayed a melting point of 236 °C.

On to `CCC=NNC(=O)c1cc(OC)cc(Oc2cccc(C(F)(F)F)c2)n1`, for which the melting point was in the range of 154 to 155 °C.

`O=C(OCC(Cl)(Cl)Cl)n1ccnc1` yielded a melting point of 80 °C.

`COc1cc(Cl)c(-n2c(=O)cc(C(F)(F)F)n(C)c2=O)c2sc(Cl)nc12` had a melting point of 185 to 187 °C.

Compound `CC(C)(C)Nc1c(NCc2ccncc2)c(=O)c1=O` came in with a melting point of 271 to 272 °C.

For the compound `N#CCCNC(=O)c1cccc(-c2ccnc3cc(Cc4cccc(C(F)(F)F)c4)oc23)c1`, the melting point lay within 164 to 165 °C.

`COC(=O)c1ccc2c(c1)C(c1ccccn1)CC(C)(C)O2` (stereo not given) displayed a melting point of 113 to 115 °C.

For the compound `CCCCCCCNC(=O)Nc1ccccc1C(=O)Nc1ccc(N(C)C)cc1`, the melting point was in the range of 178 to 180 °C.

Consider `C=CCN1C(=O)NC(C)CC1OCC` (stereo not given), for which the melting point fell in the range of 72 to 76 °C.

The compound `CCc1ccc(Nc2ncc(Cc3ccc(O)nc3)c3ncccc23)cc1Br` registered a melting point of 262 to 265 °C.

Regarding `CCCc1nc(N)nc(N)c1N1CCN(c2ccc(C#N)cc2)CC1`, the melting point is > 300 °C.

For `CC1(C)CC(=O)C(C(=O)NS(=O)(=O)c2ccc(Cl)cc2)C(=O)C1`, the melting point is 103 to 106 °C.

Turning to `CNC(=O)NS(=O)(=O)c1cc2c(cc1OC)OCCC2CNC(=O)c1cc(Cl)ccc1OC` (single isomer, unassigned; (+)), the melting point lay in the range of 147 to 148 °C.

The compound `CCC1(CC)C(=O)c2cc(O)c(C)c(C)c2C1=O` yielded a melting point of 141 to 142 °C.

With `O=C(NCc1ccc2c(c1)OCO2)Nc1cc(N2CC(c3ccccc3)CC2=O)ccn1` (stereo not given), the melting point lay within 185 to 188 °C.

With `CCOC(=O)c1cnc(-c2ccccc2[N+](=O)[O-])[nH]c1=O`, the melting point lay within 171 to 175 °C.

Consider `CS(=O)(=O)c1ccc(-c2cnn(CC(F)(F)F)c(=O)c2Cc2ccccc2)cc1`, for which the melting point was in the range of 112 to 114 °C.

With `Cc1nc2cc(N)ccc2c(=O)n1C1CCC(=O)NC1=O` (stereo not given), the melting point was in the range of 305 to 307 °C.

In turn, `Oc1ccc(C(c2ccc(O)cc2)c2ccccc2CN2CCCc3ccccc32)cc1` yielded a melting point of 160 to 163 °C.

Turning to `CC1=C(N)C(=O)C2CC1C2(C)C` (stereo not given), the melting point was in the range of 45 to 46 °C.

In turn, `CCOCc1nc2c(N)nc3c(c2n1CCCCS(C)(=O)=O)CCCC3` had a melting point of 170 to 171 °C.

The compound `CC(C)(C)OC(=O)NC(C(=O)O)C1=CSCCO1` (stereo not given) yielded a melting point of 160 °C.

`Cn1cc(C2=C(c3c4n(c5ccccc35)C[C@@H]3CN(C(=O)OC(C)(C)C)C[C@@H]3C4)C(=O)NC2=O)c2ccccc21` (relative stereo) yielded a melting point of 173 to 175 °C.

`CCOC(=O)c1cn2c3c(c(F)c(F)cc3c1=O)OCC21CCC1`: the melting point lay in the range of 255 to 256 °C.

In turn, `Cc1cc(C(=O)Nc2ccc(SC(F)(F)F)c(Cl)c2)c(O)c(C23CC4CC(CC(C4)C2)C3)c1` showed a melting point of 205 to 206 °C.

Regarding `CN1C(=O)CN=C(c2ccccc2Cl)c2cccn21`, the melting point fell in the range of 132 to 134 °C.

Consider `CCCCCCCCCCCC(=O)OC[C@H]1OCC(=NO)[C@@H](O)[C@@H]1O`, for which the melting point was 90 to 101 °C.

As to `NS(=O)(=O)c1ccc(-c2[nH]c3ccc(Cl)cc3c2-c2cccc(Cl)c2)cc1`, the melting point was in the range of 249 to 251 °C.

Turning to `CCN(CC)c1ccc2cc(-c3nc(C)c(C(=O)OC)s3)c(=O)oc2c1`, the melting point lay in the range of 252 to 253 °C.

In turn, `CCCCCCCCCCCCn1nnc(Nc2ccccc2)n1` came in with a melting point of 58 to 61 °C.

As to `Cc1nccn1-c1nc(-c2ccc(Cl)cc2)c(CCC(=O)OCc2ccccc2)o1`, the melting point was in the range of 71 to 72 °C.

`Nc1ccc(Oc2ccc(Oc3ccc(S(=O)(=O)c4ccc(Oc5ccc(Oc6ccc(N)cc6)cc5)cc4)cc3)cc2)cc1` yielded a melting point of 212 to 214 °C.

Turning to `CC(C)CC(C(=O)O)c1cc(Cl)c(-c2ccc(Cl)c(Cl)c2)c(OCC2CC2)c1` (stereo not given), the melting point was in the range of 118 to 119 °C.

As for `COc1cc(-c2ccc3cnc(Nc4ccc(C5CCN(CC(N)=O)CC5)cc4)nn23)c(OC)nn1`, the melting point lay within 249 to 251 °C.

`COc1cc(O)c2c(=O)c(OC)c(-c3ccc(OC(C)=O)c(OC)c3)oc2c1`: the melting point is 168 to 169 °C.

With `CCC(C)(NC(=O)C1=C(C(=O)Nc2cc(OC3CCCC3)c(Cl)cc2F)CCCC1)c1ccc(Cl)cc1` (stereo not given), the melting point was in the range of 200 to 201 °C.

The compound `O=C1CN(S(=O)(=O)c2ccccc2)c2ccccc2N1` returned a melting point of 183 to 185 °C.

In turn, `Cc1cc(S(=O)(=O)N2CC(C)CC(C)C2)ccc1[N+](=O)[O-]` (stereo not given) had a melting point of 133 to 138 °C.

In turn, `Cc1ccc(OCC(=O)O)c2sc3ccccc3c(=O)c12` had a melting point of 198 to 235 °C.

`COc1cccc(-c2nc(N)c(C(N)=O)nc2-c2ccc(=O)n(C(C)C)c2)c1` yielded a melting point of 192 °C.

Turning to `OCCN1C2CCC1CC(c1ccc3ccccc3c1)C2` (stereo not given), the melting point fell in the range of 84 to 88 °C.
